Data: US4906663A, “6-fluoroprostaglandins” (Asahi Glass Company, Ltd., priority 1987, dated 1990)
≈ marks a conversion by molar mass, not a printed value. Read-outs that look alike come from different tables or passages of the source.

Key:
platelet aggregation [1] = experiment: In vitro inhibition of ADP (1 μM)-induced platelet aggregation (turbidimetric method of Born, platelet-rich plasma); type: cell-based, guinea-pigs of Hartley strain; details: guinea-pig PRP, preincubated 37° C. for 10 minutes; for IC50: Cavia porcellus, Platelet
Method: (§1) Platelet aggregation study was carried out by a tarbidimetric method of Born (G. V. R. Born; Nature, 194, 927, 1962) using an aggregometer. Citrated blood obtained from guinea-pigs of Hartley strain was centrifuged at 120 g for 10 minutes and the supernatant, Platelet-rich plasma (PRP), was separated. In in vitro experiments, PRP was preincubated with test compounds at 37° C. for 10 minutes and then aggregation was induced by adding ADP (1 μM). Extent of aggregation was estimated with maximum changes of light transmittance within 5 minutes after adding ADP. Inhibitory potencies of compounds were expressed with the concentration showing 50% inhibition of platelet aggregation (IC50). In ex vivo experiments, compounds were orally given to guinea-pigs. Blood was taken 5 hours after the administration of compounds, and platelet aggregation study was performed as described in in vitro experiments. Potencies of compnds was expressed with minimum dose showing significant inhibition (MED).

platelet aggregation [2] = experiment: Ex vivo inhibition of ADP-induced platelet aggregation 5 hours after oral administration; type: in vivo; details: Cavia porcellus, blood taken 5 hours after administration, guinea-pigs, read-out: Ex vivo MED (minimum dose showing significant inhibition of platelet aggregation)
Method: as §1

[3] = test system: depression in amplitude of ST-segment on ECG (vasopressin); experiment: Antianginal effect: vasopressin-induced depression in amplitude of ST-segment on ECG; type: in vivo, male rats of Donryu strain; details: Rattus norvegicus, anesthetized rats
Method: Antianginal effect of compounds was evaluated in male rats of Donryu strain according to Hatano et al. (N. Hatano et al.; Pharmacometrics, 19, 311, 1980) Vasopressin (0.2 IU/kg) was injected into femoral vein of anesthetized rats, and the depression in amplitude of ST-segment on ECG was measured at 30 second-intervals for 5 minutes after the vasopressin injection. Test compounds were intravenously injected 2 minutes before or orally given 30 minutes before the vasopressin injection. Data were analysed with two dimension analysis between the control and treated groups, and potencies of the compounds were expressed by MED.

[4] = test system: gastric ulcer (HCl-ethanol induced); experiment: Inhibitory effect on gastric ulcer induced by HCl-ethanol (lesion index); type: in vivo, rats (male, Wister strain); details: Rattus norvegicus; oral, 30 minutes before 0.4N HCl-50% ethanol (1 ml); over night-fasted rats; read-out: ED50 (dose required for 50% inhibition of lesion index)
Method: Gastric ulcer was induced by an oral administration of 0.4N HCl-50% ethanol (1 ml) to over night-fasted rats (male, Wister strain). One hour after HCl-ethanol administration, rats were sacrificed and their stomachs were isolated. Isolated stomachs were inflated with saline and fixed with 5% formalin. After fixation, the stomach was cut open along greater curvature and maximum length of each lesion was measured. The sum of lesion length was defined as the lesion index. Compounds were given orally 30 minutes before administration of HCl-ethanol. Potencies of compounds were expressed with ED50, the dose required for 50% inhibition of lesion index.

[5] = iv, I.V., 2 minutes before vasopressin 0.2 IU/kg, read-out: I.V. MED (antianginal effect)
[6] = po, P.O., 30 minutes before vasopressin 0.2 IU/kg, read-out: P.O. MED (antianginal effect)

Row | Structure (SMILES) | In Vitro IC50 (platelet aggregation) (platelet aggregation [1]) [µg/mL] | minimal effective dose (platelet aggregation [2]) [µg/kg] | IC50 (platelet aggregation [1]) [µg/mL] | minimal effective dose [3, 5] [µg/kg] | minimal effective dose [3, 6] [µg/kg] | ED50 [4] [µg/kg]
1 | CCCCCC(O)C=CC1C(O)CC(=O)C1CC(F)CCCCC(=O)O (single isomer, unassigned; ent-6) [APG - 23, 8-ent-6-fluoro-PGE1] | 0.0145 | – | – | – | – | –
2 | CCCC[C@H](C)C[C@H](O)/C=C/[C@H]1[C@H](O)CC(=O)[C@H]1CC(F)CCCCC(=O)O (single isomer, unassigned; ent-17) [APG - 25] | – | 3000 | 0.0127 (≈ 0.0317 µM) | 1 | 0.1 | –
3 | CCCCC[C@H](O)/C=C/[C@H]1[C@H](O)CC(=O)[C@@H]1/C=C(/F)CCCCC(=O)O [APG - 2, (6E)-Δ^6-6-fluoro-PGE1] | – | – | 0.52 (≈ 1.4 µM) | – | – | –
4 | CCCCC[C@H](O)/C=C/[C@H]1[C@H](O)CC(=O)[C@@H]1C/C(F)=C\CCCC(=O)O [APG - 5, 6-fluoro-PGE2] | – | – | 0.49 (≈ 1.32 µM) | – | – | –
5 | CCCCC[C@H](O)/C=C/[C@H]1[C@H](O)CC(=O)[C@@H]1C/C(F)=C\CCCC(=O)OC [APG - 7, 6-fluoro-PGE2 methyl ester] | – | – | 0.655 (≈ 1.7 µM) | – | – | –
6 | CCCCC[C@H](O)/C=C/[C@H]1[C@H](O)CC(=O)[C@@H]1CC(F)CCCCC(=O)O (stereo partly drawn) [APG - 21, 6-fluoro-PGE1] | – | – | 0.1 (≈ 0.268 µM) | – | – | –
7 | CCCC[C@H](C)C[C@H](O)/C=C/[C@H]1[C@H](O)CC(=O)[C@@H]1CC(F)CCCCC(=O)O (stereo partly drawn) [APG - 24, (17S)-17,20-dimethyl-6-fluoro-PGE1] | – | 300 | 0.0059 (≈ 0.0147 µM) | 10 | 0.1 | –
8 | CCCC[C@H](C)C[C@H](O)/C=C/[C@H]1[C@H](O)CC(=O)[C@@H]1C/C(F)=C\CCCC(=O)O [APG - 27, (17S)-17,20-dimethyl-6-fluoro-PGE2] | – | – | 0.0427 (≈ 0.107 µM) | – | – | 3.4
9 | CCCC[C@H](C)C[C@H](O)/C=C/[C@H]1[C@H](O)CC(=O)[C@@H]1CC(F)CC/C=C/C(=O)O (stereo partly drawn) [APG - 29, Δ^2-(17S)-17,20-dimethyl-6-fluoro-PGE1] | – | 100 | 0.00233 (≈ 0.00585 µM) | – | 0.1 | 1.8
10 | CCCC[C@H](C)C[C@H](O)/C=C/[C@H]1[C@H](O)CC(=O)[C@H]1CC(F)CC/C=C/C(=O)O (stereo partly drawn) [APG - 30, (17S)-8-ent-Δ^2-17,20-dimethyl-6-fuoro-PGE1] | – | 1000 | 0.00105 (≈ 0.00263 µM) | – | – | –
